Source: US4568666A, “Carboxylalkyl peptide derivatives” (G. D. Searle & Co., priority 1984, dated 1986)

Experiments:
[1] = target: T1, Human Rheumatoid Synovial Collagenase (Homo sapiens, UniProt P03956); assay: Collagenase inhibition (procedure of Cawston and Barrett, acetyl 14C collagen); type: biochemical; settings: 37° C., 16 hours, native acetyl 14C collagen, Tris HCl-CaCl2 pH 7.6
T1 construct: from tissue
T1 sequence (P03956 100-469): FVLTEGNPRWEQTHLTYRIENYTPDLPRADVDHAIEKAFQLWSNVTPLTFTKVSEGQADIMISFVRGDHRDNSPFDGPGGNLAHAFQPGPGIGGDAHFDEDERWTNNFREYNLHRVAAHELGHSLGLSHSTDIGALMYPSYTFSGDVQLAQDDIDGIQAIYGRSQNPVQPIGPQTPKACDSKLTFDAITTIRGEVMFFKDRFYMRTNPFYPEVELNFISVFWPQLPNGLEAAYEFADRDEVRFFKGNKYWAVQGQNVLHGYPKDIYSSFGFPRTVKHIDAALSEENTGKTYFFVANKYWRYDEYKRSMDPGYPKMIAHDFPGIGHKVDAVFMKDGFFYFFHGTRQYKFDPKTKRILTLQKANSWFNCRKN
Method: This was determined following the procedure of Cawston and Barrett, Anal. Biochem., 99, 340-345 (1979) whereby the 1 mM of the inhibitor being tested or dilutions thereof are incubated at 37° C. for 16 hours with native collagen and collagenase (buffered with Tris HCl--CaCl2; pH 7.6). The collagen is acetyl ^14 C collagen. The samples are centrifuged to sediment undigested collagen and an aliquot of the radiactive supernatant removed for assay on a scintillation counter as a measure of hydrolysis. The collagenase activity in the presence of 1 mM inhibitor, or a dilution thereof, is compared to activity in a control devoid of inhibitor and the results reported as that inhibitor concentration effecting 50% inhibition of the collagenase.

[2] = test system: rat model of inflammatory arthritis; assay: Rat model of inflammatory arthritis induced by Type II collagen (Trentham et al.); type: in vivo; settings: prednisolone 0.625 mg/kg b.i.d.
Method: The therapeutic effectivness is assessed in the rat model of inflammatory arthritis described by Trentham et al. (1977). In this model, the arthritis, induced by an intradermal injection of Type II collagen, generally develops in both hind paws and the progression and severity of the lesion are monitored by physical measurements of the malleolar width and ankle extensibility.
The compound of Example II in the present specification was administered by intraperitoneal injections at 100 mg/kg twice daily for 21 days commencing seven days after the injection of the disease.
Drugs (Example 11 or prednisolone) and vehicle were administered to groups of 10 rats each. Physical measurements on the rat paws were made weekly for four weeks and consisted of (a) the distance between the medial and lateral malleolus (malleolar width) and (b) the ankle extension which was measured by applying a standard force to th rat paw and measuring the angle formed between the flexor surface of the foot and the tibia. Evidence of a therapeutic effect was denoted by a significant reduction in malleolar width and a significant increase in ankle extension. Both measurements were carried out in apparatus designed for the purpose. Area-under-the-curve data from these time course experiments was examinaed by non-parametic statistical analysis. The prednisolone standard was given at a dose of 0.625 mg/kg b.i.d. Prednisolone was chosen as a standard since steroids are known to be effective both clinically in Rheumatoid Arthritis and in animal models of arthritis.

[3] = arthritic rats' paws, Example 11 100 mg/kg i.p. twice daily for 21 days, area-under-the-curve data

Question: What does the source list for CNC(=O)[C@H](Cc1ccc(OC)cc1)NC(=O)[C@H](CC(C)C)N[C@H](CCNC(=O)OCc1ccccc1)C(=O)O [Example 11, N-[3-N-(Benzyloxycarbonyl)amino-1-(R)-carboxypropyl]-L-leucyl-O-methyl-L-tyrosine N-Methylamide]?
Answer: IC50 [1]: 0.8 µM; Ankle extension, percentage change from control, experiment number 1 [2, 3]: 66%; Ankle extension, percentage change from control, experiment number 2 [2, 3]: 39%; Ankle extension, percentage change from control, experiment number 3 [2, 3]: 39%; Malleolar width, percentage change from control, experiment number 1 [2, 3]: 65%; Malleolar width, percentage change from control, experiment number 2 [2, 3]: 43%; Malleolar width, percentage change from control, experiment number 3 [2, 3]: 41%; Ankle extension, percentage change from control, mean ([2]; mean of experiments 1-3, Example 11 100 mg/kg i.p. twice daily): 48%
